Peptide text beside a SMILES is read from it.
How the values were obtained:
[1] = target: HLA-B3501 (Homo sapiens, UniProt P01889, A329T/A93T/A95T/C349S/D201E/D98Y/E176V/E187L/E204Q/E69T/I218V/K202T/L119I/Q94N/R155S/R180L/S121R/S35A/S48A/T118I/V127L/V306I/V36M/Y140S/Y91F); assay: Competitive peptide binding assay, CIR-B3501; details: HMy2.CIR-B3501 cells, reference Cy5-[…], class from inhibition at 5 and 15 μM, flow cytometry MFI; read-out: Binding affinity with HLA-B3501
Method: (§1) Then, competitive peptide binding assays were performed.

[2] = target: HLA-B1501 (Homo sapiens, UniProt P01889, A329T/A93T/A95T/C349S/D201E/D98Y/E187L/E204Q/E69M/E70A/K202T/N87E/Q94N/R155S/R180W/S121R/S35A/S48A/V306I/V36M/Y140S/Y91S); assay: Competitive peptide binding assay, CIR-B1501; details: HMy2.CIR-B1501 cells, reference Cy5-[…], class from inhibition at 5 and 15 μM, flow cytometry MFI; read-out: Binding affinity with HLA-B1501
Method: as §1

[3] = target: HLA-B1502 (Homo sapiens, UniProt P01889, A329T/A93T/A95T/C349S/D201E/D98Y/E187L/E204Q/E69M/E70A/H137Y/K202T/L119I/Q94N/R155S/R180L/S121R/S35A/S48A/T118I/V306I/V36M/Y140S/Y91S); assay: Competitive peptide binding assay, CIR-B1502; details: HMy2.CIR-B1502 cells, reference Cy5-[…], class from inhibition at 5 and 15 μM, flow cytometry MFI; read-out: Binding affinity with HLA-B1502
Method: as §1

[4] = target: HLA-B5801 (Homo sapiens, UniProt P01889, A329T/C349S/D201E/D98Y/E176V/E187L/E204Q/E69T/G107R/I218V/I90N/K202T/L105A/L119I/N104I/N87E/Q89R/Q94S/R106L/R155S/R180L/R86G/S101N/S121R/S35A/S48A/T118I/V127L/V306I/V36M/Y140S/Y91M); assay: Competitive peptide binding assay, CIR-B5801; details: HMy2.CIR-B5801 cells, reference Cy5-[…], class from inhibition at 5 and 15 μM, flow cytometry MFI; read-out: Binding affinity with HLA-B5801
Method: as §1

[5] = target: HLA-B5101 (Homo sapiens, UniProt P01889, A329T/A93T/A95T/C349S/D138N/D201E/D98Y/E187L/E204Q/E69T/G107R/I218V/K202T/L105A/L119W/N104I/Q94N/R106L/R155S/R180L/S101N/S121T/S35A/S48A/V306I/V36M/Y195H/Y91F); assay: Competitive peptide binding assay, CIR-B5101; details: HMy2.CIR-B5101 cells, reference Cy5-[…], class from inhibition at 5 and 15 μM, flow cytometry MFI; read-out: Binding affinity with HLA-B5101
Method: as §1

[6] = target: HLA-B1302 (Homo sapiens, UniProt P01889, A65T/A93T/A95T/D138N/D201E/D98Y/E176V/E204Q/E69M/E70A/G107R/K202T/L105A/L119W/N104T/N87E/Q94N/R106L/R155S/R169L/R180L/S101N/S121T/S35A/S48T/V127L/V36M/Y140L/Y91S); assay: Competitive peptide binding assay, CIR-B1302; details: HMy2.CIR-B1302 cells, reference Cy5-MMWYWGPSL, class from inhibition at 5 and 15 μM, flow cytometry MFI; read-out: Binding affinity with HLA-B1302
Method: as §1

[7] = target: HLA-B4001 (Homo sapiens, UniProt P01889, A65T/A93T/A95T/D138N/D98Y/E176V/E69K/N87E/Q56L/Q94N/R180L/S121R/S35A/S48T/T167S/V36M/W171L/Y33H/Y91S); assay: Competitive peptide binding assay, CIR-B4001; details: HMy2.CIR-B4001 cells, reference Cy5-[…], class from inhibition at 5 and 15 μM, flow cytometry MFI; read-out: Binding affinity with HLA-B4001
Method: as §1

[8] = target: HLA-B4801 (Homo sapiens, UniProt P01889, A269T/A93T/A95T/D138N/D98Y/E176V/N87E/Q94N/R180L/T167S/W171L/Y91S); assay: Competitive peptide binding assay, CIR-B4801; details: HMy2.CIR-B4801 cells, reference Cy5-[…], class from inhibition at 5 and 15 μM, flow cytometry MFI; read-out: Binding affinity with HLA-B4801
Method: as §1

[9] = target: HLA-B1301 (Homo sapiens, UniProt P01889, A65T/A93T/A95T/D138N/D201E/D98Y/E176V/E204Q/E69M/E70A/G107R/K202T/L105A/L119I/N104T/N87E/Q94N/R106L/R155S/R169L/R180L/S101N/S121R/S35A/S48T/T118I/V127L/V36M/Y140L/Y91S); assay: Competitive peptide binding assay, CIR-B1301; details: HMy2.CIR-B1301 cells, reference Cy5-[…], class from inhibition at 5 and 15 μM, flow cytometry MFI; read-out: Binding affinity with HLA-B1301
Method: as §1

[10] = target: HLA-B4403 (Homo sapiens, UniProt P01889, A223V/A65T/A93T/A95T/D201E/D98Y/E176V/E187L/E204Q/E69K/G107R/H137Y/K202T/L105A/L119I/N104T/N87E/Q56L/Q94N/R106L/R155S/R180L/S101N/S121R/S35A/S48T/T118I/V36M/W191S/Y140D/Y91S); assay: Competitive peptide binding assay, CIR-B4403; details: HMy2.CIR-B4403 cells, reference Cy5-CYMEAVAL, class from inhibition at 5 and 15 μM, flow cytometry MFI; read-out: Binding affinity with HLA-B4403
Method: as §1

[11] = target: T1, HLA-B0702 (Homo sapiens, UniProt P01889); assay: Competitive peptide binding assay, CIR-B0702; details: HMy2.CIR-B0702 cells, reference Cy5-[…], class from inhibition at 5 and 15 μM, flow cytometry MFI
T1 construct: expressed in transfected cells; host or cells: HMy2.CIR
Method: as §1

[12] = target: HLA-B4601 (Homo sapiens, UniProt P01889, A329T/A93R/C349S/D201E/E100V/E187L/E204Q/E69M/E70A/I90K/K202T/N87E/R155S/R180W/S121R/S35A/S48A/V306I/V36M/Y140S); assay: Competitive peptide binding assay, CIR-B4601; details: HMy2.CIR-B4601 cells, reference Cy5-[…], class from inhibition at 5 and 15 μM, flow cytometry MFI; read-out: Binding affinity with HLA-B4601
Method: as §1

Row | Structure (SMILES) | IC50 [1] [µM] | IC50 [2] [µM] | IC50 [3] [µM] | IC50 [4] [µM] | IC50 [5] [µM] | IC50 [6] [µM] | IC50 [7] [µM] | IC50 [8] [µM] | IC50 [9] [µM] | IC50 [10] [µM] | IC50 [11] [µM] | IC50 [12] [µM]
1 | CC[C@H](C)[C@H](NC(=O)[C@@H]1CCCN1C(=O)[C@@H]1CCCN1C(=O)[C@@H](NC(=O)[C@H](CCCCN)NC(=O)[C@H](Cc1ccc(O)cc1)NC(=O)[C@@H](NC(=O)[C@H](CCC(N)=O)NC(=O)[C@@H](N)CCCCN)[C@@H](C)CC)[C@@H](C)O)C(=O)O [Epitope Y82] (H-KQIYKTPPI-OH; N-terminus and C-terminus assumed) | < 5 | > 15 | > 15 | 5 to 15 | > 15 |  |  |  |  |  |  | 
2 | CC(C)C[C@H](NC(=O)[C@H](CCC(N)=O)NC(=O)[C@@H](NC(=O)[C@H](CS)NC(=O)[C@H](Cc1ccccc1)NC(=O)[C@H](CO)NC(=O)CNC(=O)[C@H](Cc1ccc(O)cc1)NC(=O)[C@H](CCC(N)=O)NC(=O)[C@@H](N)CC(C)C)[C@@H](C)O)C(=O)O [Epitope Y88] (H-LQYGSFCTQL-OH; N-terminus and C-terminus assumed) | 5 to 15 | > 15 |  | > 15 | > 15 |  |  |  |  |  |  | 
3 | CC(C)C[C@H](NC(=O)[C@H](Cc1c[nH]cn1)NC(=O)[C@H](Cc1ccccc1)NC(=O)[C@@H](NC(=O)[C@H](CC(=O)O)NC(=O)[C@H](C)NC(=O)[C@H](Cc1ccc(O)cc1)NC(=O)[C@H](CCC(=O)O)NC(=O)[C@@H](N)CCC(N)=O)C(C)C)C(=O)O [Epitope Y71] (H-QEYADVFHL-OH; N-terminus and C-terminus assumed) | 5 to 15 | 5 to 15 |  | > 15 | > 15 | > 15 | 5 to 15 |  |  |  |  | 
4 | CC[C@H](C)[C@H](NC(=O)[C@H](CC(=O)O)NC(=O)[C@H](CCCNC(=N)N)NC(=O)CNC(=O)[C@H](Cc1ccccc1)NC(=O)[C@H](CCC(N)=O)NC(=O)[C@H](CCC(N)=O)NC(=O)[C@H](Cc1ccccc1)NC(=O)[C@@H]1CCCN1C(=O)[C@@H](N)CC(C)C)C(=O)O [Epitope Y282] (H-LPFQQFGRDI-OH; N-terminus and C-terminus assumed) |  | 5 to 15 | > 15 |  |  |  |  | > 15 | > 15 |  |  | 
5 | CC[C@H](C)[C@H](NC(=O)[C@H](CC(N)=O)NC(=O)[C@H](CCCCN)NC(=O)[C@H](Cc1ccccc1)NC(=O)[C@@H](NC(=O)[C@@H](N)Cc1ccccc1)C(C)C)C(=O)N[C@@H](CC(=O)O)C(=O)NCC(=O)N[C@@H](Cc1ccc(O)cc1)C(=O)O [Epitope Y172] (H-FVFKNIDGY-OH; N-terminus and C-terminus assumed) | 5 to 15 | < 5 | 5 to 15 | < 5 | > 15 | > 15 | > 15 |  | > 15 | > 15 | > 15 | > 15

Source: article PMC12133982, “Predominant T-cell epitopes of SARS-CoV-2 restricted by multiple prevalent HLA-B and HLA-C allotypes in Northeast Asia” (Frontiers in Immunology, 2025)
